Molecular target: T1, NCPAH-(His)6; N-carbamoylputrescine amidohydrolase (NCPAH) (Bacteroides thetaiotaomicron, UniProt Q8A9E0)
T1 construct: gene BT_0875; full-length, C-terminal His6 tag kept (pET23b NdeI/XhoI, plasmid pMSK106), expressed in E. coli BL21(DE3)
T1 sequence (Q8A9E0 1-294): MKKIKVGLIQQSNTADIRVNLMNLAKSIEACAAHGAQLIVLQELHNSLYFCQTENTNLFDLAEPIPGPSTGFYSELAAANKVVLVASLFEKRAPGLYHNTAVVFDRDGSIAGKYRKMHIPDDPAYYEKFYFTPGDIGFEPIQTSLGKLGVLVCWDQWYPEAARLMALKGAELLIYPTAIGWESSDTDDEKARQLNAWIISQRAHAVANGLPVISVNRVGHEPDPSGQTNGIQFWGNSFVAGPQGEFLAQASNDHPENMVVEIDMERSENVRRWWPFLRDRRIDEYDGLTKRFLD
Assay: HPLC of putrescine formed
Assay type: biochemical
Conditions: read-out: % inhibition at 1 mM

Row | inhibition at 1000 µM | SMILES
1 | > 80% | N=C(N)NCCCCN [agmatine]
2 | > 80% | NCCCCNCCCN [spermidine]

Row | SMILES | inhibition at 1000 µM
3 | NCCCCN [putrescine] | ~50%

Reference: article PMC10135574, “N-Carbamoylputrescine Amidohydrolase of Bacteroides thetaiotaomicron, a Dominant Species of the Human Gut Microbiota” (Biomedicines, 2023)
